{"source": "paper PMC6714113", "about": "(Research in Pharmaceutical Sciences, 2019)", "origin": "cited, not measured here", "settings": "read-out: IC50 (cytotoxicity)"}
{"smiles": "N[C@@H](Cc1ccc(B(O)O)cc1)C(=O)O", "note": "[BPA, boronophenylalanine]", "values": [{"measurement": "IC50", "value": "> 4", "unit": "mM"}]}
